Measurements as given in article PMC9008429, “Identification of a New Cholesterol‐Binding Site within the IFN‐γ Receptor that is Required for Signal Transduction” (Advanced Science, 2022).
Residue numbers refer to the chain shown, from its start.

Tests used:
IFN-γR2 [1] = target: T1, IFN-γR2 (Homo sapiens, UniProt P38484); experiment: competition of photoaffinity labelling in living cells, anti-GFP IP, autoradiography; type: cell-based; conditions: competes with [3H]-photo-chol, dose-dependent; curve only in supplement
T1 construct: gene IFNGR2; full-length, C-terminal GFP fusion (peGFP-N1); transiently expressed in CHO (with IFN-γR1-RLuc) or HAP1 IFN-γR2 KO cells; in the functional receptor two R1 and two R2 chains
T1 sequence (P38484 22-337): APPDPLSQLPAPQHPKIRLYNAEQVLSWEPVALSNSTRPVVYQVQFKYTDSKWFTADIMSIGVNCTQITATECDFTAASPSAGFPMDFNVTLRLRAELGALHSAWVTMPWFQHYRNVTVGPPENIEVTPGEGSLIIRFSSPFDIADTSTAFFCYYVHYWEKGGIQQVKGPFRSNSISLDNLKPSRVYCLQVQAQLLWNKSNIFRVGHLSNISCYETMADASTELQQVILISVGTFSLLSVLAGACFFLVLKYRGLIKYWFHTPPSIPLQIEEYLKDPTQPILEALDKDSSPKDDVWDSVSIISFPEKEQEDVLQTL

IFN-γR2 [2] = target: T2, IFN-γR2 (Homo sapiens, UniProt P38484, L250T/I251T/G254F); experiment: in vivo photoaffinity labelling, UV cross-link, anti-GFP IP, autoradiography; type: cell-based; conditions: 3 µM probe, 6 h; full-length GFP fusion, CHO and HAP1 IFN-γR2 KO cells; covalent; labelled compound; with or without IFN-γ
T2 construct: gene IFNGR2; full-length, C-terminal GFP fusion (peGFP-N1); transiently expressed in CHO (with IFN-γR1-RLuc) or HAP1 IFN-γR2 KO cells
T2 sequence (P38484 22-337 L250T/I251T/G254F): T1 sequence (P38484 22-337) with L229T, I230T, G233F

Compound | competition of photoaffinity labelling in living cells, anti-GFP IP, autoradiogr (IFN-γR2 [1]) | % reduction of chol binding vs wild type (IFN-γR2 [2])
CC(C)CCC[C@@H](C)[C@H]1CC[C@H]2[C@@H]3CC=C4C[C@@H](O)CC[C@]4(C)[C@H]3CC[C@]12C [chol] | cross‐linking between [^3H]‐photo‐chol and IFN‐γR2 was competed in a dose‐dependent manner | 
[3H]-photo-chol |  | > 50%
